Reference: ChEMBL document CHEMBL1124125, “6-(Alkylamino)-3-aryl-1,2,4-triazolo[3,4-a]phthalazines. A new class of benzodiazepine receptor ligands” (J Med Chem, 1988)

Key:
[1] = target: GABA-A receptor; anion channel; experiment: Inhibition of [3H]diazepam binding to GABA-A central benzodiazepine receptor of rat brain homogenate
[2] = Lethal dose when given intraperitoneally in mice; assay type: toxicity, organism-based; conditions: mouse, in vivo, ip
Mus musculus [3] = experiment: Dose that prevented tonic extensor seizures and death in 50% of the mice.(ip); assay type: functional
[4] = target: T1, GABA-A receptor; anion channel (Rattus norvegicus) (UniProt O09028+P15431+P18506+P18508+P19969+P20236+P23574+P23576+P28471+P28473+P30191+P62813+P63079+P63138+Q91ZM7+Q9ES14); experiment: Relative inhibition of [3H]diazepam binding to GABA-A receptor of rat forebrain in the presence and absence of GABA(10e-4M)
Rattus norvegicus [5] = experiment: Minimal effective dose (MED, ip) that significantly increased the number of shocks (anticonflict); assay type: functional; conditions: read-out: MED
Mus musculus [6] = experiment: Minimal effective dose on mouse for mortality after intraperitoneal administration.(1/3 animals died); assay type: functional; conditions: ip, read-out: MED
Rattus norvegicus [7] = experiment: Minimal effective dose on rat for body tone after intraperitoneal administration.; assay type: functional; conditions: ip, read-out: MED
Rattus norvegicus [8] = experiment: Minimal effective dose on rat for motility after intraperitoneal administration.; assay type: functional; conditions: ip, read-out: MED
Rattus norvegicus [9] = experiment: Effective dose on rat for body tone after intraperitoneal administration.; assay type: functional
Rattus norvegicus [10] = experiment: Effective dose on rat for motility after intraperitoneal administration.; assay type: functional
Rattus norvegicus [11] = experiment: Minimal effective dose on rat for motor coordination after intraperitoneal administration.; assay type: functional; conditions: ip, read-out: MED
[12] = target: T1, GABA-A receptor; anion channel (Rattus norvegicus); experiment: GABA ratio (IC50/IC50 in the presence of 10e-4 GABA).; assay type: protein-complex assay
Rattus norvegicus [13] = experiment: Activity was measured by rotarod test by peroral administration in rat; assay type: functional; conditions: po
Mus musculus [14] = experiment: Minimal effective dose on mouse for motor coordination after intraperitoneal administration.; assay type: functional; conditions: ip, read-out: MED
Mus musculus [15] = experiment: Activity was measured by rotarod test by intraperitoneal administration in mouse.; assay type: functional; conditions: ip
Mus musculus [16] = experiment: Effective dose on mouse for body tone after intraperitoneal administration.; assay type: functional
Mus musculus [17] = experiment: Anticonvulsant activity of the compound when lethal dose of strychnine given subcutaneously in mouse; assay type: functional; conditions: sc
Mus musculus [18] = experiment: Minimal effective dose on mouse for motility after intraperitoneal administration.; assay type: functional; conditions: ip, read-out: MED
Mus musculus [19] = experiment: Minimal effective dose on mouse for body tone after intraperitoneal administration.; assay type: functional; conditions: ip, read-out: MED
Mus musculus [20] = experiment: Effective dose on mouse for motility after intraperitoneal administration.; assay type: functional
Rattus norvegicus [21] = experiment: Minimal effective dose on rat for mortality after intraperitoneal administration. (1/3 animals died); assay type: functional; conditions: ip, read-out: MED
Mus musculus [22] = organism: Mus musculus; experiment: Anticonvulsant activity of the compound when maximal electroshock is induced in mouse; assay type: functional
Mus musculus [23] = experiment: Anticonvulsant activity of the compound when bicuculline given subcutaneously in mouse; assay type: functional; conditions: sc
Rattus norvegicus [24] = experiment: Conditioned Avoidance response activity (CR2) at 20 mg/kg (i.p.) (No. of rats with blocked response/No. of treated rats); assay type: functional; conditions: route intraperitoneal
Rattus norvegicus [25] = experiment: Effective dose on rat for motor coordination after intraperitoneal administration.; assay type: functional
Mus musculus [26] = experiment: Effective dose on mouse for motor coordination after intraperitoneal administration.; assay type: functional
Rattus norvegicus [27] = experiment: Conditioned Avoidance response activity (CR2) at 10 mg/kg (i.p.) (No. of rats with blocked response/No. of treated rats); assay type: functional; conditions: route intraperitoneal
Mus musculus [28] = experiment: Antagonism of Diazepam muscle relaxant effect by compound (10 mg/kg, ip) was measured as the ratio of fallen/treated mice.; assay type: functional
Mus musculus [29] = experiment: Antagonism of Diazepam muscle relaxant effect by compound (30 mg/kg, ip) was measured as the ratio of fallen/treated mice.; assay type: functional
Mus musculus [30] = organism: Mus musculus; experiment: Anticonvulsant activity when maximal electroshock is induced in mouse; assay type: functional
Rattus norvegicus [31] = experiment: Minimal effective dose (MED) that significantly increased the number of shocks.(ip); conditions: read-out: MED
Mus musculus [32] = experiment: Anticonvulsant activity when lethal dose of strychnine given subcutaneously in mouse; conditions: sc
Mus musculus [33] = experiment: Antagonism of Diazepam muscle relaxant effect by compound (3 mg/kg, ip) was measured by the fallen/treated mice.; assay type: functional
Mus musculus [34] = experiment: Anticonvulsant activity when bicuculline given subcutaneously in mouse; assay type: functional; conditions: sc
Mus musculus [35] = experiment: Inhibition of Anti-pentylenetetrazole-induced convulsions in mice following i.p. administration.; assay type: functional; conditions: ip

SMILES: COCCN(CCOC)c1nn2c(-c3ccccc3)nnc2c2ccccc12
- Ki [1]: 66 nM
- LD50 [2]: 200 mg/kg
- ED50 (Mus musculus [3]): 34.2 mg/kg
- Ratio [4]: 1.6
- minimal effective dose (Rattus norvegicus [5]): 15 mg/kg

SMILES: COCCN(CCOC)c1nn2c(-c3ccc(OC)cc3)nnc2c2ccccc12
- Ki [1]: 2.6 nM
- LD50 [2]: 300 mg/kg
- minimal effective dose (Mus musculus [6]): 300 mg/kg
- minimal effective dose (Rattus norvegicus [7]): 300 mg/kg
- minimal effective dose (Rattus norvegicus [8]): 300 mg/kg
- ED (Rattus norvegicus [9]): 600 mg/kg
- ED (Rattus norvegicus [10]): 1000 mg/kg
- minimal effective dose (Rattus norvegicus [11]): 100 mg/kg
- Ratio [12]: 1.83
- ED50 (Mus musculus [3]): 6.2 mg/kg
- ED50 (Rattus norvegicus [13]): 300 mg/kg
- minimal effective dose (Mus musculus [14]): 6 mg/kg
- ED50 (Mus musculus [15]): 60 mg/kg
- ED (Mus musculus [16]): 100 mg/kg
- ED50 (Mus musculus [17]): 50 mg/kg
- minimal effective dose (Mus musculus [18]): 10 mg/kg
- minimal effective dose (Mus musculus [19]): 6 mg/kg
- ED (Mus musculus [20]): 60 mg/kg
- minimal effective dose (Rattus norvegicus [21]): 1000 mg/kg
- ED50 (Mus musculus [22]): 50 mg/kg
- ED50 (Mus musculus [23]): 4 mg/kg
- CR2 (Rattus norvegicus [24]): 10 block/treat
- ED (Rattus norvegicus [25]): 600 mg/kg
- minimal effective dose (Rattus norvegicus [5]): 3.5 mg/kg
- ED (Mus musculus [26]): 60 mg/kg
- CR2 (Rattus norvegicus [27]): 4 block/treat

SMILES: c1ccc(-c2nnc3c4ccccc4c(N4CCCC4)nn23)cc1
- Ki [1]: 15.6 nM
- LD50 [2]: 400 mg/kg
- Ratio [12]: 1.1
- ED50 (Mus musculus [3]): > 75 mg/kg
- Fallen/treated (Mus musculus [28]): 4
- Fallen/treated (Mus musculus [29]): 2

SMILES: CCCCCOc1ccc(-c2nnc3c4ccccc4c(N4CCCC4)nn23)cc1OC
- Ki [1]: > 3000 nM
- LD50 [2]: 200 mg/kg
- ED50 (Mus musculus [3]): > 50 mg/kg

SMILES: CN1CCN(c2nn3c(-c4ccccc4)nnc3c3ccccc23)CC1
- Ki [1]: 37.7 nM
- LD50 [2]: 300 mg/kg
- Ratio [12]: 0.9
- ED50 (Mus musculus [3]): > 50 mg/kg

SMILES: COCCN(CCOC)c1nn2c(-c3ccc(O)cc3)nnc2c2ccccc12
- Ki [1]: 4.1 nM
- LD50 [2]: 600 mg/kg
- Ratio [12]: 1
- ED50 (Mus musculus [3]): > 50 mg/kg

SMILES: CN1C(=O)CN=C(c2ccccc2)c2cc(Cl)ccc21 [DIAZEPAM]
- ED50 (Mus musculus [30]): 14.2 mg/kg
- ED50 (Rattus norvegicus [13]): 15 mg/kg
- minimal effective dose (Rattus norvegicus [31]): 3 mg/kg
- ED50 (Mus musculus [15]): 1 mg/kg
- ED50 (Mus musculus [32]): 3 mg/kg
- Fallen/treated (Mus musculus [33]): 8
- minimal effective dose (Rattus norvegicus [5]): 0.25 mg/kg
- ED50 (Mus musculus [34]): 1.4 mg/kg
- CR2 (Rattus norvegicus [27]): 5 block/treat

SMILES: COc1cc(-c2nnc3c4ccccc4c(N4CCCC4)nn23)cc(Br)c1OC
- Ki [1]: > 3000 nM
- LD50 [2]: 600 mg/kg
- ED50 (Mus musculus [3]): > 100 mg/kg

SMILES: O=C(O)c1ccc(-c2nnc3c4ccccc4c(N4CCCC4)nn23)cc1
- Ki [1]: > 3000 nM
- LD50 [2]: 400 mg/kg
- ED50 (Mus musculus [3]): > 75 mg/kg

SMILES: COCCN(CCOC)c1nn2c(-c3ccc(OC)c(C)c3)nnc2c2ccccc12
- Ki [1]: 1820 nM
- LD50 [2]: 400 mg/kg
- ED50 (Mus musculus [3]): > 100 mg/kg

SMILES: COc1ccc(-c2nnc3c4ccccc4c(N(C)CC(C)O)nn23)cc1 (configuration not stated)
- Ki [1]: 17 nM
- LD50 [2]: 300 mg/kg
- Ratio [12]: 1.4
- ED50 (Mus musculus [3]): 9.8 mg/kg
- minimal effective dose (Rattus norvegicus [5]): 10 mg/kg

SMILES: CNc1nn2c(-c3ccccc3)nnc2c2ccccc12
- Ki [1]: 46.3 nM
- LD50 [2]: 300 mg/kg
- ED50 (Mus musculus [3]): > 60 mg/kg
- Ratio [4]: 1

SMILES: FC(F)(F)c1cccc(-c2nnc3c4ccccc4c(N4CCCC4)nn23)c1
- Ki [1]: > 3000 nM
- LD50 [2]: 600 mg/kg
- ED50 (Mus musculus [35]): ≥ 100 mg/kg

SMILES: COc1ccc(-c2nnc3c4ccccc4c(N4CCCC4)nn23)cc1OC
- Ki [1]: > 3000 nM
- LD50 [2]: 500 mg/kg
- ED50 (Mus musculus [3]): > 100 mg/kg

SMILES: c1ccc(-c2nnc3c4ccccc4c(N4CCOCC4)nn23)cc1
- Ki [1]: 14 nM
- LD50 [2]: 300 mg/kg
- Ratio [12]: 0.95
- ED50 (Mus musculus [35]): ≥ 100 mg/kg

SMILES: COCCN(CCOC)c1nn2c(-c3ccc(C)cc3)nnc2c2ccccc12
- Ki [1]: 44 nM
- LD50 [2]: 400 mg/kg
- Ratio [12]: 1.9
- ED50 (Mus musculus [35]): 20.4 mg/kg
- minimal effective dose (Rattus norvegicus [5]): 10 mg/kg

SMILES: COCCN(CCOC)c1nn2c(-c3ccc(OC(C)C)cc3)nnc2c2ccccc12
- Ki [1]: 142 nM
- LD50 [2]: 600 mg/kg
- Ratio [12]: 1.8
- ED50 (Mus musculus [3]): 20.7 mg/kg
- minimal effective dose (Rattus norvegicus [5]): 10 mg/kg

SMILES: CN(C)c1nn2c(-c3ccccc3)nnc2c2ccccc12
- Ki [1]: 20.8 nM
- LD50 [2]: 400 mg/kg
- ED50 (Mus musculus [3]): > 75 mg/kg
- Fallen/treated (Mus musculus [28]): 5
- Ratio [4]: 1.1
- Fallen/treated (Mus musculus [29]): 2

SMILES: Cc1ccc(-c2nnc3c4ccccc4c(N4CCCC4)nn23)cc1C
- Ki [1]: 1970 nM
- LD50 [2]: 300 mg/kg
- ED50 (Mus musculus [3]): > 50 mg/kg

SMILES: CCN(CC)c1nn2c(-c3ccccc3)nnc2c2ccccc12
- Ki [1]: 41 nM
- LD50 [2]: 600 mg/kg
- ED50 (Mus musculus [3]): > 100 mg/kg
- Ratio [4]: 0.9

SMILES: NC(=O)c1ccc(-c2nnc3c4ccccc4c(N4CCCC4)nn23)cc1
- Ki [1]: 113 nM
- LD50 [2]: 200 mg/kg
- Ratio [12]: 1.1
- ED50 (Mus musculus [35]): ≥ 50 mg/kg

SMILES: COCCN(CCOC)c1nn2c(-c3ccc(N(C)C)cc3)nnc2c2ccccc12
- Ki [1]: 2650 nM
- LD50 [2]: 200 mg/kg
- ED50 (Mus musculus [35]): 20 mg/kg

SMILES: N#Cc1ccc(-c2nnc3c4ccccc4c(N4CCCC4)nn23)cc1
- Ki [1]: 102 nM
- LD50 [2]: 600 mg/kg
- Ratio [12]: 1.1
- ED50 (Mus musculus [35]): ≥ 100 mg/kg

SMILES: CN(C)c1ccc(-c2nnc3c4ccccc4c(N4CCCC4)nn23)cc1
- Ki [1]: 1720 nM
- LD50 [2]: 300 mg/kg
- ED50 (Mus musculus [35]): ≥ 75 mg/kg
